SMILES strings stand for the structures.

Tested on in one data set: not listed separately
In words: Cmax in CD1 mouse at 250 mg/kg. The class given is ADME, organism-based. More on the design: dose 250 mg/kg. Conditions: in vivo.
In turn, `Cc1nc(NC(=O)[C@H](C)CC(F)(F)F)sc1-c1ccc(N)nc1` displayed a Cmax of 55 µM. In other words, the double-digit micromolar range.

Molecule `Cc1nc(NC(=O)[C@@H](C)CC(F)(F)F)sc1-c1ccc(N)nc1` yielded a Cmax of 26 µM.

In turn, `Cc1nc(NC(=O)C(C)(C)CC(F)(F)F)sc1-c1ccc(N)nc1` showed a Cmax of 59 µM. Compared with the last molecule, the Cmax is about 2.3-fold higher.

Consider `COc1ccc(-c2c(C)nn3c(NCCN4CCOCC4)cc(C)nc23)cc1OC`, for which the concentration peaked (Cmax) at 52 µM.

Tested on in a further data set: not listed separately
Kind of data set: Cmax in CD1 mouse at 5 mg/kg. Conditions: in vivo. The class given is ADME, organism-based. Also on record: dose 5 mg/kg.
Molecule `Cc1nc(NC(=O)[C@H](C)CC(F)(F)F)sc1-c1ccc(N)nc1` displayed a Cmax of 1.8 µM.

The molecule `Cc1nc(NC(=O)[C@@H](C)CC(F)(F)F)sc1-c1ccc(N)nc1` yielded a Cmax of 2.2 µM.

In turn, `Cc1nc(NC(=O)C(C)(C)CC(F)(F)F)sc1-c1ccc(N)nc1` displayed a peak concentration (Cmax) of 0.5 µM.

`COc1ccc(-c2c(C)nn3c(NCCN4CCOCC4)cc(C)nc23)cc1OC` returned a maximum concentration (Cmax) of 1.9 µM. Against the preceding molecule, the Cmax is about 3.8-fold higher.

Tested on in the next data set: not listed separately
Kind of data set: Half life in rat at 5 mg/kg, po and 2 mg/kg, iv. Conditions: in vivo. The data set is classed as ADME, organism-based.
In the case of `CO[C@H]1CC[C@@H](C(=O)Nc2nc(C)c(-c3ccc(N)nc3)s2)CC1`, the half-life was 0.38 h.

In turn, `Cc1nc(NC(=O)C(C)CC(F)(F)F)sc1-c1ccc(N)nc1` (stereo not given) showed a half-life of 1.7 h.

Molecule `COc1ccc(-c2c(C)nn3c(NCCN4CCOCC4)cc(C)nc23)cc1OC` had a half-life of 2.8 h.

Tested on in the next data set: not listed separately
Kind of data set: Total clearance in rat at 5 mg/kg, po and 2 mg/kg, iv. The data set is classed as ADME, organism-based. Conditions: in vivo.
With `CO[C@H]1CC[C@@H](C(=O)Nc2nc(C)c(-c3ccc(N)nc3)s2)CC1`, the clearance amounted to 70 mL/min/kg.

For `Cc1nc(NC(=O)C(C)CC(F)(F)F)sc1-c1ccc(N)nc1` (stereo not given), the clearance came to 40 mL/min/kg.

`COc1ccc(-c2c(C)nn3c(NCCN4CCOCC4)cc(C)nc23)cc1OC` came in with a clearance of 18 mL/min/kg.

Tested on in a further data set: not listed separately
Kind of data set: (§1) Oral bioavailability in rat at 5 mg/kg. The class given is ADME, organism-based. Conditions: in vivo.
`CO[C@H]1CC[C@@H](C(=O)Nc2nc(C)c(-c3ccc(N)nc3)s2)CC1` registered a bioavailability of 77%.

Consider `COc1ccc(-c2c(C)nn3c(NCCN4CCOCC4)cc(C)nc23)cc1OC`, for which the bioavailability was 91%.

In a further data set the test system is Rattus norvegicus. The data set is described as §1. The data set is classed as ADME, organism-based. Conditions: in vivo.
As for `Cc1nc(NC(=O)C(C)CC(F)(F)F)sc1-c1ccc(N)nc1` (stereo not given), the F is reported as 160%.

Tested on in a further data set: not listed separately
In words: AUC in rat at 5 mg/kg, po and 2 mg/kg, iv. Conditions: plasma. The class given is ADME, organism-based.
`CO[C@H]1CC[C@@H](C(=O)Nc2nc(C)c(-c3ccc(N)nc3)s2)CC1` gave an exposure (AUC) of 2.65 µM·h.

For `Cc1nc(NC(=O)C(C)CC(F)(F)F)sc1-c1ccc(N)nc1` (stereo not given), the AUC stood at 9.7 µM·h.

Turning to `COc1ccc(-c2c(C)nn3c(NCCN4CCOCC4)cc(C)nc23)cc1OC`, the AUC was found to be 10 µM·h.

Tested on in a further data set: not listed separately
In words: Cmax in rat at 5 mg/kg, po and 2 mg/kg, iv. The data set is classed as ADME, organism-based. Conditions: in vivo.
`CO[C@H]1CC[C@@H](C(=O)Nc2nc(C)c(-c3ccc(N)nc3)s2)CC1` returned a Cmax of 1.5 µM.

`Cc1nc(NC(=O)C(C)CC(F)(F)F)sc1-c1ccc(N)nc1` (stereo not given) showed a Cmax of 1.9 µM.

Take `COc1ccc(-c2c(C)nn3c(NCCN4CCOCC4)cc(C)nc23)cc1OC`: the Cmax was 2 µM.

Tested on in the next data set: not listed separately
In words: Permeability across apical to basolateral side in human Caco2 cells. The data set is classed as ADME, cell-based. Conditions: Caco-2, read-out: permeability.
Consider `Nc1ccc(-c2cnc(NC(=O)CN(Cc3ccccc3)C(=O)c3ccncc3)s2)cc1`, for which the Papp A→B worked out at 11.3 ×10⁻⁶ cm/s.

`Nc1ccc(-c2cnc(NC(=O)CN(Cc3ccccc3)C(=O)c3ccncc3)s2)cn1`: the Papp A→B was found to be 2.3 ×10⁻⁶ cm/s.

Turning to `Cc1nc(NC(=O)CN(Cc2ccccc2)C(=O)c2ccncc2)sc1-c1ccc(N)nc1`, the Papp A→B was 2.1 ×10⁻⁶ cm/s.

As for `Cc1nc(NC(=O)CN2C(=O)OC[C@H]2C(C)C)sc1-c1ccc(N)cc1`, the Papp A→B was determined as 19 ×10⁻⁶ cm/s.

For `CC(=O)N1[C@@H](c2ccccc2)CC[C@H]1C(=O)Nc1ncc(-c2ccc(N)cc2)s1`, the Papp A→B was 21 ×10⁻⁶ cm/s.

As for `Cc1ccc(C(=O)N(CC(=O)Nc2ncc(-c3ccc(N)cc3)s2)Cc2ccccc2)cn1`, the Papp A→B turned out to be 17 ×10⁻⁶ cm/s.

For `CO[C@H]1CC[C@@H](C(=O)Nc2nc(C)c(-c3ccc(N)nc3)s2)CC1`, the Papp A→B is 18 ×10⁻⁶ cm/s.

On to `Cc1nc(NC(=O)[C@H]2CC[C@@H](C(F)(F)F)CC2)sc1-c1ccc(N)nc1`, for which the Papp A→B stood at 22 ×10⁻⁶ cm/s.

On to `Cc1nc(NC(=O)C2(C)CCCCC2)sc1-c1ccc(N)nc1`, for which the Papp A→B came out at 20 ×10⁻⁶ cm/s.

With `Cc1nc(NC(=O)C(C)CC(F)(F)F)sc1-c1ccc(N)nc1` (stereo not given), the Papp A→B came out at 20 ×10⁻⁶ cm/s.

Consider `Cc1nc(NC(=O)Cc2nc(-c3ccccc3)c(C)o2)sc1-c1ccc(N)nc1`, for which the Papp A→B was determined as 26 ×10⁻⁶ cm/s.

Turning to `Cc1nc(NC(=O)[C@H](C)CC(F)(F)F)sc1-c1ccc(N)nc1`, the Papp A→B was 44 ×10⁻⁶ cm/s.

For `Cc1nc(NC(=O)[C@@H](C)CC(F)(F)F)sc1-c1ccc(N)nc1`, the Papp A→B was determined as 42 ×10⁻⁶ cm/s.

As to `Cc1nc(NC(=O)C(C)(C)CC(F)(F)F)sc1-c1ccc(N)nc1`, the Papp A→B stood at 41 ×10⁻⁶ cm/s.

Regarding `COc1ccc(-c2c(C)nn3c(NCCN4CCOCC4)cc(C)nc23)cc1OC`, the Papp A→B is 11 ×10⁻⁶ cm/s.

Tested on in the next data set: not listed separately
In words: Total clearance in CD1 mouse at 2 mg/kg, iv. The class given is ADME, organism-based. Also on record: dose 2 mg/kg, route intravenous. Conditions: in vivo.
Molecule `Cc1nc(NC(=O)[C@H](C)CC(F)(F)F)sc1-c1ccc(N)nc1` showed a clearance of 91 mL/min/kg.

Consider `Cc1nc(NC(=O)[C@@H](C)CC(F)(F)F)sc1-c1ccc(N)nc1`, for which the clearance came out at 71 mL/min/kg.

Molecule `Cc1nc(NC(=O)C(C)(C)CC(F)(F)F)sc1-c1ccc(N)nc1` returned a clearance of 58 mL/min/kg.

Tested on in the next data set: not listed separately
In words: AUC in CD1 mouse at 5 mg/kg. The class given is ADME, organism-based. More on the design: dose 5 mg/kg. Conditions: plasma.
In turn, `Cc1nc(NC(=O)[C@H](C)CC(F)(F)F)sc1-c1ccc(N)nc1` came in with an AUC of 2.7 µM·h.

Consider `Cc1nc(NC(=O)[C@@H](C)CC(F)(F)F)sc1-c1ccc(N)nc1`, for which the AUC came to 4 µM·h.

`Cc1nc(NC(=O)C(C)(C)CC(F)(F)F)sc1-c1ccc(N)nc1` yielded an AUC of 208 µM·h.

In turn, `COc1ccc(-c2c(C)nn3c(NCCN4CCOCC4)cc(C)nc23)cc1OC` showed an area under the curve (AUC) of 3.6 µM·h. This AUC lies about 58-fold lower than the previous one.

Tested on in another data set: not listed separately
In words: AUC in CD1 mouse at 50 mg/kg. The class given is ADME, organism-based. More on the design: dose 50 mg/kg. Conditions: plasma.
`Cc1nc(NC(=O)[C@H](C)CC(F)(F)F)sc1-c1ccc(N)nc1` gave an AUC of 44 µM·h.

As for `Cc1nc(NC(=O)[C@@H](C)CC(F)(F)F)sc1-c1ccc(N)nc1`, the AUC was found to be 38 µM·h.

Regarding `Cc1nc(NC(=O)C(C)(C)CC(F)(F)F)sc1-c1ccc(N)nc1`, the AUC is 514 µM·h.

As to `COc1ccc(-c2c(C)nn3c(NCCN4CCOCC4)cc(C)nc23)cc1OC`, the AUC was 45 µM·h. Against the preceding molecule, the AUC is about 11-fold lower.

Tested on in another data set: not listed separately
Kind of data set: AUC in CD1 mouse at 250 mg/kg. The data set is classed as ADME, organism-based. More on the design: dose 250 mg/kg. Conditions: plasma.
Take `Cc1nc(NC(=O)[C@H](C)CC(F)(F)F)sc1-c1ccc(N)nc1`: the area under the curve (AUC) was found to be 176 µM·h.

Take `Cc1nc(NC(=O)[C@@H](C)CC(F)(F)F)sc1-c1ccc(N)nc1`: the AUC was 12 µM·h.

Molecule `COc1ccc(-c2c(C)nn3c(NCCN4CCOCC4)cc(C)nc23)cc1OC` came in with an AUC of 307 µM·h.

Tested on in the next data set: not listed separately
In words: Cmax in CD1 mouse at 50 mg/kg. The class given is ADME, organism-based. Conditions: in vivo. More on the design: dose 50 mg/kg.
The molecule `Cc1nc(NC(=O)[C@H](C)CC(F)(F)F)sc1-c1ccc(N)nc1` gave a Cmax of 18 µM.

Regarding `Cc1nc(NC(=O)[C@@H](C)CC(F)(F)F)sc1-c1ccc(N)nc1`, the Cmax came out at 20 µM. This Cmax and that of the molecule before are within 1.5-fold of each other.

For the molecule `Cc1nc(NC(=O)C(C)(C)CC(F)(F)F)sc1-c1ccc(N)nc1`, the Cmax stood at 12 µM.

In the case of `COc1ccc(-c2c(C)nn3c(NCCN4CCOCC4)cc(C)nc23)cc1OC`, the concentration peaked (Cmax) at 15 µM.

Tested on in a further data set: not listed separately
Kind of data set: physchem. Conditions: buffer, pH 7.4.
In the case of `Nc1ccc(-c2cnc(NC(=O)CN(Cc3ccccc3)C(=O)c3ccncc3)s2)cc1`, the logD stood at 2.9.

The molecule `Nc1ccc(-c2cnc(NC(=O)CN(Cc3ccccc3)C(=O)c3ccncc3)s2)cn1` yielded a logD of 2.6.

For the molecule `Cc1nc(NC(=O)CN(Cc2ccccc2)C(=O)c2ccncc2)sc1-c1ccc(N)nc1`, the logD was found to be 2.8.

In turn, `Cc1nc(NC(=O)CN2C(=O)OC[C@H]2C(C)C)sc1-c1ccc(N)cc1` had a logD of 2.5.

On to `CC(=O)N1[C@@H](c2ccccc2)CC[C@H]1C(=O)Nc1ncc(-c2ccc(N)cc2)s1`, for which the logD came out at 3.2.

The molecule `CO[C@H]1CC[C@@H](C(=O)Nc2nc(C)c(-c3ccc(N)nc3)s2)CC1` yielded a logD of 2.8.

In the case of `Cc1nc(NC(=O)[C@H]2CC[C@@H](C(F)(F)F)CC2)sc1-c1ccc(N)nc1`, the logD came out at 3.8.

`Cc1nc(NC(=O)C2(C)CCCCC2)sc1-c1ccc(N)nc1` came in with a logD of 3.8.

Molecule `Cc1nc(NC(=O)C(C)CC(F)(F)F)sc1-c1ccc(N)nc1` (stereo not given) registered a logD of 2.9.

The molecule `Cc1nc(NC(=O)Cc2nc(-c3ccccc3)c(C)o2)sc1-c1ccc(N)nc1` came in with a log distribution coefficient (logD) of 4.

Consider `Cc1nc(NC(=O)[C@H](C)CC(F)(F)F)sc1-c1ccc(N)nc1`, for which the logD worked out at 3.2.

In turn, `Cc1nc(NC(=O)[C@@H](C)CC(F)(F)F)sc1-c1ccc(N)nc1` yielded a logD of 3.2.

`Cc1nc(NC(=O)C(C)(C)CC(F)(F)F)sc1-c1ccc(N)nc1` returned a logD of 3.4.

The molecule `COc1ccc(-c2c(C)nn3c(NCCN4CCOCC4)cc(C)nc23)cc1OC` yielded a log distribution coefficient (logD) of 2.7.

One may read the Cmax as the peak of the concentration-time curve. The half-life is the time needed for the level to fall by half in the phase considered. A higher half-life goes with slow decline. Broadly, the bioavailability is dose-corrected exposure relative to a reference, in per cent. Read a low bioavailability as poor availability. For orientation: AUC means the area under the concentration-time curve, a measure of exposure. Lower therefore signals less exposure. One may read the logD as lipophilicity at a set pH, counting ionised and neutral species. A higher logD goes with higher lipophilicity.

Values taken from ChEMBL document CHEMBL2396517, “Design, synthesis and biological evaluation of novel aminothiazoles as antiviral compounds acting against human rhinovirus” (Bioorg Med Chem Lett, 2013).
